Laboratory results taken from patent publication EP4790048A1, “S1PR4 REGULATOR COMPOUND FOR AUTOIMMUNE DISEASE TREATMENT AND APPLICATION THEREOF” (Shengyuan Zetong (Shanghai) Pharmaceutical Co., Ltd, priority 2023, dated 2025).

How the values were obtained:
hS1P4 = target: T1, hS1P4 (Homo sapiens, UniProt O95977); test: Tango β-arrestin recruitment luciferase assay, Tango-hS1P4-CHO; format: cell-based; settings: β-arrestin recruitment; 20 h drug treatment; top 45 µM, 9 serial 5-fold dilutions; positive control 25 µM BAF-312; read-out: Tango-hS1P4-CHO EC50
T1 construct: expressed in transfected cells; host or cells: CHO
T1 sequence (O95977 1-384): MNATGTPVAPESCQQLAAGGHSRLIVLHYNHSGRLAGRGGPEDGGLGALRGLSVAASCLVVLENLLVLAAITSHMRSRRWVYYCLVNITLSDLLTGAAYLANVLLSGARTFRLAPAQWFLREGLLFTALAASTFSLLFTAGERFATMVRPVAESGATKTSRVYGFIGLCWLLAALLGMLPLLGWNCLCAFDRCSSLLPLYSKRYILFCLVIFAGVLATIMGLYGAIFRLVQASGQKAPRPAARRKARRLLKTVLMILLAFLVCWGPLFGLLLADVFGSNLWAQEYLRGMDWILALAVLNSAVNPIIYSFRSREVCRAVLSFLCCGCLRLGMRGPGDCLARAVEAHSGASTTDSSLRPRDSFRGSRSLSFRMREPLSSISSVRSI
Excerpt: (§1) The Tango assay detects ligand-dependent GPCR activity through the interaction between β-arrestin and GPCRs. […] The NTEV fragment and the tetracycline transactivator (tTA), an artificial transcription factor, are fused at the C-terminus of the GPCR, while the CTEV fragment is fused to human β-arrestin 2. To enhance the stability of the interaction between GPCR and β-arrestin, a short sequence from the C-terminus of the human arginine vasopressin receptor 2 (V2 tail) is inserted between the GPCR and NTEV. The V2 tail contains multiple GRK phosphorylation sites, which strengthen β-arrestin binding upon phosphorylation. The CTEV fragment carries the stabile point mutation S219P and is truncated at residue 221 to remove the autoinhibitory C-terminal tail. Meanwhile, β-arrestin 2 is truncated to lack the entire C-terminal tail (residues 383-410 deleted). This truncation confers robust stimulus-dependent receptor desensitization, thereby improving detection sensitivity compared with wild-type β-arrestin 2. The UAS reporter construct consists of upstream activating sequence (UAS) elements, a minimal CMV promoter, and a tTA-dependent luciferase reporter gene. Therefore, constructing Tango cells requires the co-transfection of the above three plasmids into host cells. Upon GPCR activation and β-arrestin recruitment, the TEV enzyme at the β-arrestin terminus cleaves tTA from the GPCR C-terminus. The released tTA initiates tTA-dependent luciferase transcription, and compound activity is ultimately determined by measuring luminescence intensity.
(§2) • 1) Tango cell line from was digested from the culture dish respectively. After cell counting, the cells were plated at a density of 10,000 cells per well with […] into a white opaque 96-well plate (add 60 µL D'Hanks to the surrounding wells), and incubated overnight (20 h) in a 5% CO2 incubator at 37°C. The cell density will reach approximately 90% the next day. • 2) After 20 h, 30 µL of serially diluted compound solution was added to each well. The control group was supplemented with 30 µL F12K complete medium. Each group had three replicate wells. • 3) Samples were collected after 20 h of drug treatment.
(§3) (All compounds were tested at a final concentration of 45 µM, with 9 serial dilutions at 5-fold intervals. 1 µM BAF-312 was used as the positive control for S1PR1, and 25 µM BAF-312 was used as the positive control for S1PR4.

hS1P1 = target: T2, hS1P1 (Homo sapiens, UniProt P21453); test: Tango β-arrestin recruitment luciferase assay, Tango-hS1P1-CHO; format: cell-based; settings: β-arrestin recruitment; 20 h drug treatment; top 45 µM, 9 serial 5-fold dilutions; positive control 1 µM BAF-312; read-out: Tango-hS1P1-CHO EC50
T2 construct: expressed in transfected cells; host or cells: CHO
Excerpt: as §1, §2, §3

T2 sequence (P21453 whole entry): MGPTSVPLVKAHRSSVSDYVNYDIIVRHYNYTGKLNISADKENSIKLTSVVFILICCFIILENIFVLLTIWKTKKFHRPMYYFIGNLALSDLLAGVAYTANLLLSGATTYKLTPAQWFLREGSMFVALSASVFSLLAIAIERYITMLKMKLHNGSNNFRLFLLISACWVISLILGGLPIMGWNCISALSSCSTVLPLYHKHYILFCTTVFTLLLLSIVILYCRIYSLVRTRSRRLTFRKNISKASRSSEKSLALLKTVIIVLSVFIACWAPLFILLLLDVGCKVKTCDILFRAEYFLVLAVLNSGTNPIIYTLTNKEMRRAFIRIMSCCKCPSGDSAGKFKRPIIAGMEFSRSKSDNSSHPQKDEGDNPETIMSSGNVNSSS

In the case of CCc1cc(/C(C)=N/OCc2ccc(-c3cnc(O)cn3)c(C)c2)ccc1CN1CC[C@H](C(=O)O)C1 [Compound 5, (S, E)-1-(2-ethyl-4-(1-(((3-methyl-4-(5-hydroxypyrazin-2-yl)-benzyl)oxy)imino)ethyl)benzyl)pyrrolidine-3-carboxylic acid], the EC50 (hS1P4) is reported as 4.22 ± 1.19 nM.

In the case of C/C(=N\OCc1ccc(C2CCCCC2)c(C(F)(F)F)c1)c1ccc(CNCCCC(=O)O)cc1 [Compound 8, (E)-4-((4-((1-((4-cyclohexyl-3-(trifluoromethyl)benzyl)oxy)imino)ethyl)benzyl)amino)butanoic acid], the EC50 (hS1P4) is reported as 2400 nM.

For C/C(=N\OCc1ccc(C2CCCCC2)c(C(F)(F)F)c1)c1ccc(CN2CC(C(=O)O)C2)c(Br)c1 [Compound 12, (E)-1-(2-bromo-4-(1-((4-cyclohexyl-3-(trifluoromethyl)benzyl)oxy)imino)ethyl)azetidine-3-carboxylic acid], the EC50 (hS1P4) was 2250 nM.

In the case of CCc1cc(/C(C)=N/OCc2cccc(C(F)(F)F)c2)ccc1CN1CC(C(=O)O)C1 [Compound 13], the EC50 (hS1P4) is reported as 3240 nM.

CCc1cc(/C(C)=N/OCc2ccc3ccccc3c2)ccc1CN1CC(C(=O)O)C1 [Compound 15] was tested, and the EC50 (hS1P1) was 807 nM.

Compound CCc1cc(/C(C)=N/OCc2ccc(OC(C)C)c(C#N)c2)ccc1CN1CC(C(=O)O)C1 [Compound 16, (E)-1-(4-(1-(((3-cyano-4-isopropoxybenzyl)oxy)imino)ethyl)-2-ethylbenzyl)azetidine-3-carboxylic acid] has an EC50 (hS1P4) of 3320 nM.

CCc1cc(/C(C)=N/OCc2ccc(-c3ccccc3)cc2)ccc1CN1CC(C(=O)O)C1 [Compound 20, (E)-1-(4-(1-(([1,1'-biphenyl]-4-ylmethoxy)imino)ethyl)-2-ethylbenzyl)azetidine-3-carboxylic acid] gave an EC50 (hS1P1) of 782 ± 24.9 nM.

CCc1cc(/C(C)=N/OCc2ccc3c(c2)CCCC3)ccc1CN1CC(C(=O)O)C1 [Compound 23, (E)-1-(2-ethyl-4-(1-(((5,6,7,8-tetrahydronaphthalen-2-yl)methoxy)imino)ethyl)benzyl)azetidine-3-carboxylic acid] showed an EC50 (hS1P1) of 560 nM.

In the case of COc1cc(/C(C)=N/OCc2ccc(C3CCCCC3)c(C(F)(F)F)c2)ccc1CN1CC(C(=O)O)C1 [Compound 27], the EC50 (hS1P4) is reported as 1700 nM.

CCc1cc(/C(C)=N/OCc2ccc(-c3ccccc3)c(C)c2)ccc1CN1CCCC(C(=O)O)C1 (stereo not drawn) [Compound 33] gave an EC50 (hS1P1) of 454 nM.

For CCc1cc(/C(C)=N/OCc2ccc(-c3cnn(C(C)(C)C)c3)c(C)c2)ccc1CN1CC[C@H](C(=O)O)C1 [Compound 39], the EC50 (hS1P1) was > 10000 nM.

CCc1cc(/C(C)=N/OCc2ccc(-c3cnn(C)c3)c(C)c2)ccc1CN1CC[C@H](C(=O)O)C1 [Compound 40] was tested, and the EC50 (hS1P1) was > 10000 nM.

For CCc1cc(/C(C)=N/OCc2ccc(-c3ccsc3)c(C)c2)ccc1CN1CC[C@H](C(=O)O)C1 [Compound 41, (S, E)-1-(2-ethyl-4-(1-(((3-methyl-4-(thiophen-3-yl)benzyl)oxy)imino)ethyl)benzyl)pyrrolidine-3-carboxylic acid], the EC50 (hS1P4) was 2.91 ± 0.01 nM.

CCc1cc(/C(C)=N/OCc2ccc(-c3ccc(F)cc3F)c(C)c2)ccc1CN1CC[C@H](C(=O)O)C1 [Compound 47, (S, E)-1-(2-ethyl-4-(1-(((2',4'-difluoro-2-methyl-[1,1'-biphenyl]-4-yl)methoxy)imino)ethyl)benzyl)pyrrolidine-3-carboxylic acid] gave an EC50 (hS1P4) of 4.67 nM.

In the case of CCc1cc(/C(C)=N/OCc2ccc(-c3ccc(F)nc3)c(C)c2)ccc1CN1CC[C@H](C(=O)O)C1 [Compound 53, (S, E)-1-(2-ethyl-4-(1-(((4-(6-fluoropyridin-3-yl)-3-methylbenzyl)oxy)imino)ethyl)benzyl)pyrrolidine-3-carboxylic acid], the EC50 (hS1P4) is reported as 7.02 ± 0.59 nM.

For CCc1cc(/C(C)=N/OCc2ccc(-c3ccsc3)cc2)ccc1CN1CC[C@H](C(=O)O)C1 [Compound 56], the EC50 (hS1P4) was 5.05 ± 1.84 nM.

In the case of CCc1cc(/C(C)=N/OCc2ccc(-c3cnn(C)c3)cc2F)ccc1CN1CC[C@H](C(=O)O)C1 [Compound 58], the EC50 (hS1P4) is reported as > 10000 nM.

Compound CCc1cc(/C(C)=N/OCc2ccc(C3CCCCC3)c(C)c2)ccc1CN1CC[C@H](C(=O)O)C1 [Compound 60, (S, E)-1-(2-ethyl-4-(1-(((4-cyclohexyl-3-methylbenzyl)oxy)imino)ethyl)benzyl)pyrrolidine-3-carboxylic acid] has an EC50 (hS1P4) of 71.7 nM.

In the case of CCc1cc(/C(C)=N/OCc2ccc(C3=CCCCC3)c(C)c2)ccc1CN1CC[C@H](C(=O)O)C1 [Compound 61], the EC50 (hS1P4) is reported as 3.33 ± 2.5 nM.

CCc1cc(/C(C)=N/OCc2ccc(C3CCCC3)c(C)c2)ccc1CN1CC[C@H](C(=O)O)C1 [Compound 62, (S, E)-1-(2-ethyl-4-(1-(((4-cyclopentyl-3-methylbenzyl)oxy)imino)ethyl)benzyl)pyrrolidine-3-carboxylic acid] gave an EC50 (hS1P4) of 3.31 ± 0.24 nM.

CCc1cc(/C(C)=N/OCc2ccc(C3=CCCC3)c(C)c2)ccc1CN1CC[C@H](C(=O)O)C1 [Compound 63] gave an EC50 (hS1P4) of 5.86 ± 0.27 nM.

Compound CCc1cc(/C(C)=N/OCc2ccc(-c3ccccc3F)c(F)c2)ccc1CN1CC[C@H](C(=O)O)C1 [Compound 64] has an EC50 (hS1P4) of 7.77 ± 1.02 nM.

CCc1cc(/C(C)=N/OCc2ccc(-c3ccc(F)nc3)c(F)c2)ccc1CN1CC[C@H](C(=O)O)C1 [Compound 69, (S, E)-1-(2-ethyl-4-(1-(((3-fluoro-4-(6-fluoropyridin-3-yl)benzyl)oxy)imino)ethyl)benzyl)pyrrolidine-3-carboxylic acid] gave an EC50 (hS1P4) of 8.28 ± 0.38 nM.

Compound CCc1cc(/C(C)=N/OCc2ccc(-c3cccs3)c(C)c2)ccc1CN1CC[C@H](C(=O)O)C1 [Compound 72, (S, E)-1-(2-ethyl-4-(1-(((3-methyl-4-(thiophen-2-yl)benzyl)oxy)imino)ethyl)benzyl)pyrrolidine-3-carboxylic acid] has an EC50 (hS1P4) of 1.51 ± 0.64 nM.

Compound CCc1cc(/C(C)=N/OCc2ccc(-c3ccncn3)c(C)c2)ccc1CN1CC[C@H](C(=O)O)C1 [Compound 76, (S, E)-1-(2-ethyl-4-(1-(((3-methyl-4-(pyrimidin-4-yl)benzyl)oxy)imino)ethyl)benzyl)pyrrolidine-3-carboxylic acid] has an EC50 (hS1P4) of 4.39 ± 0.91 nM.

CCc1cc(/C(C)=N/OCc2ccc(-c3ncc(F)cn3)c(C)c2)ccc1CN1CC[C@H](C(=O)O)C1 [Compound 77, (S, E)-1-(2-ethyl-4-(1-(((4-(5-fluoropyrimidin-2-yl)-3-methylbenzyl)oxy)imino)ethyl)benzyl)pyrrolidine-3-carboxylic acid] was tested, and the EC50 (hS1P4) was 5.93 ± 4.12 nM.

CCc1cc(/C(C)=N/OCc2ccc(-c3cncnc3)c(C)c2)ccc1CN1CC(C(=O)O)C1 [Compound 81, (E)-1-(2-ethyl-4-(1-(((3-methyl-4-(pyrimidin-5-yl)benzyl)oxy)imino)ethyl)benzyl)azetidine-3-carboxylic acid] showed an EC50 (hS1P4) of 103 ± 9.1 nM.

For CCc1cc(/C(C)=N/OCc2ccc(-c3ccsc3)c(F)c2)ccc1CN1CC[C@H](C(=O)O)C1 [Compound 85, (S, E)-1-(2-ethyl-4-(1-(((3-fluoro-4-(thiophen-3-yl)benzyl)oxy)imino)ethyl)benzyl)pyrrolidine-3-carboxylic acid], the EC50 (hS1P4) was 8.52 ± 0.21 nM.

With CCc1cc(/C(C)=N/OCc2ccc(-c3cnc(F)cn3)c(C)c2)ccc1CN1CCC(C(=O)O)CC1 [Compound 90, (E)-1-(2-ethyl-4-(1-(((3-methyl-4-(5-fluoropyrazin-2-yl)-benzyl)oxy)imino)ethyl)benzyl)piperidine-4-carboxylic acid] the EC50 (hS1P4) was > 10000 nM.

In the case of CCc1cc(/C(C)=N/OCc2ccc(-c3cnc(F)cn3)c(C)c2)ccc1CN1CC(C(=O)O)C1 [Compound 91, (E)-1-(2-ethyl-4-(1-(((3-methyl-4-(5-fluoropyrazin-2-yl)-benzyl)oxy)imino)ethyl)benzyl)azetidine-3-carboxylic acid], the EC50 (hS1P4) is reported as > 10000 nM.
